Results taken from paper PMC4450091 (JOM (Warrendale, Pa. : 1989), 2015).
Where no end group is shown, it is not given here.

Legend:
[1] = tested on: Streptococcus mutans ATCC 25175; assay type: cell-based; details: ATCC 25175, 24 h
[2] = tested on: Escherichia coli ATCC 2592; assay type: cell-based; details: ATCC 2592, 24 h

Row | Sequence | Minimum inhibitory concentration (MIC), S. mutans [1] [µM] | Minimum inhibitory concentration (MIC), E. coli [2] [µM]
1 | SRPNGYGGSESSGGGLKLLKKLLKLLKKL [TiBPS2-AMP1] | 336.5 | –
2 | HAYKQPVLSTPFGGGKWKRWWWWR [TiBPS3-AMP2] | – | 167.4
3 | RPRENRGRERGLGGGKWKRWWWWR [TiBPS1-AMP2] | – | 80.8
